According to patent publication US20110200655A1, “Systems and methods that kill infectious agents (bacteria) without the use of a systemic anti-biotic” (priority 2010, published 2011):

Experiments:
MMPs = conditions: compared with Ilomastat; cited from earlier work
E. coli bacteria = assay: Zone of inhibition of extract solutions on agar culture plate; format: cell-based, Escherichia coli; conditions: 20 microliter drop
Procedure: In this example, a microbicidal utility substrate is made of a nonwoven rayon gauze material graft polymerized with diallyldimethylammonium chloride (DADAMC), and containing approximately 10 weight % poly(DADMAC)), and SofWick, a commercially available rayon gauze material manufactured by Johnson & Johnson were used as substrates. The material was prepared via modification of the SofWick substrate. Each substrate measured approximately 40 square inches. Substrates were dried at 60° C. for 30 minutes and then weighed. Both samples were trimmed to weigh exactly 1.00 grams each. A 0.5 weight % solution of Cefazolin Sodium USP (Geneva Pharmaceuticals) was prepared. Each sample was placed in a 50 mL screw-cap polypropylene centrifuge tube, along with 30 mL of the Cefazolin solution and the tubes were placed on a rotating agitator for 3 hours. The samples were removed from the solutions, then squeezed to remove excess solution, dried at 60° C. for 2 hours, then weighed. The sample weighed 1.05 grams, whereas the SofWick sample weighed 1.00 grams. […] The extraction liquid was saved for analysis.
The dried samples were placed in separate 50 mL centrifuge tubes containing 25 mL of distilled water, then placed in the rotating agitator overnight at room temperature. The samples were then removed, squeezed to remove excess solution, dried at 60° C. for 2 hours, then weighed. The sample weighed 1.03 grams, and the SofWick sample weighed 0.98 grams. […] The extraction liquid was saved for analysis This extraction procedure was repeated […] additional times to yield two series of six extraction liquids.
The extract solutions were tested for antimicrobial activity by placing single 20 microliter drops of the solutions at marked locations on an agar culture plate spread with ~3×10^3 CFU (continuous lawn) of E. coli bacteria. Plates were incubated overnight at 37° C., and the diameter of the “zone of inhibition”, or “ZOI” was measured. The size of this zone corresponds to the antibacterial activity of the extract solutions. […]

Staph. aureus = assay: as above; format: cell-based, Staphylococcus aureus
Procedure: The extract solutions were tested for antimicrobial activity by placing single 20 microliter drops of the solutions at marked locations on an agar culture plate spread with ~3×10^3 CFU (continuous lawn) of E. coli bacteria. Plates were incubated overnight at 37° C., and the diameter of the “zone of inhibition”, or “ZOI” was measured. The size of this zone corresponds to the antibacterial activity of the extract solutions.
The samples were soaked in 25 mL of 5% PG solution for 2 hours, then squeezed to remove excess solution, dried and weighed. Samples were then washed with 25 mL of distilled water for one hour, then dried and weighed. These wash solutions (G-1 and H-1) were saved for analysis. The samples were then subjected to two additional washings with 25 mL distilled water, without drying in between washings (G-2, G-3, and H-2, H-3). Samples were then dried and weighed.
A repeat of the method of Example 15 was used, except that the extraction solvent used was phosphate buffered saline (“PBS”, pH=7.4, Fisher Scientific), and samples were not dried and weighed between extractions. Samples of a microbicidal utility substrate (Sample I, initial weight=1.024 g) and SofWick (Sample J, initial weight=1.011 g) were each soaked in 20 Ml of ~4% penicillin G solution overnight, and excess solution was removed by squeezing. Samples were then washed with 25 mL distilled water for one hour with agitation, squeezed to remove excess liquid, and then subjected to five sequential extractions using 25 mL of PBS for one hour at room temperature. Samples were squeezed to remove excess solution between extractions. Extracts were tested for antibacterial activity against S. aureus according to the procedure outlined above.
The method of Example 15 was used, except that sodium pyrithione (“SP”, Acros Chemical) was used instead of penicillin. One gram samples of the microbicidal utility substrate (sample K), and untreated SofWick (sample L) were each soaked overnight in 25 ml of 0.5% SP solution. Samples were removed and squeezed to remove excess liquid. Samples were then washed in 25 mL of distilled water for one hour with agitation, then squeezed to remove excess liquid. Each sample was subjected to four sequential extractions using 25 mL of distilled water for one hour at room temperature with agitation. Samples were squeezed to remove excess solution between extraction cycles. The extracts were tested for antibacterial activity against S. aureus using the procedure described above.

microorganisms = conditions: tobramycin 2.5 mg/l, 15-400 µA/cm^2 during 8 h; cited from earlier work

CC(C)C[C@H](CC(=O)NO)C(=O)N[C@@H](Cc1c[nH]c2ccccc12)C(=O)O [C-terminal carboxylic form of Ilomastat]
Ki values for MMPs (MMPs): lower

Cc1nnc(SCC2=C(C(=O)O)N3C(=O)[C@@H](NC(=O)Cn4cnnn4)[C@H]3SC2)s1 [Cefazolin, Cefazolin Sodium USP]
ZOI diameter (E. coli bacteria; Cefazolin 0.01% control solution): 0 mm
ZOI diameter (E. coli bacteria; Cefazolin 0.1% control solution): 18 mm
ZOI diameter (E. coli bacteria; Cefazolin 1% control solution): 40 mm

CNC(=O)C(Cc1c[nH]c2ccccc12)NC(=O)C(CC(=O)O)CC(C)C (centres unmarked) [GM1489]
Ki values for MMPs (MMPs): almost as good as Ilomastat

CC1(C)S[C@@H]2[C@H](NC(=O)Cc3ccccc3)C(=O)N2[C@H]1C(=O)[O-].[K+] [Penicillin G, Penicillin G Potassium]
ZOI diameter (Staph. aureus; Penicillin G 0.01% control solution): 0 mm
ZOI diameter (Staph. aureus; Penicillin G 0.1% control solution): 44 mm
ZOI diameter (Staph. aureus; Penicillin G 1.0% control solution): 56 mm

[Na+].[O-][n+]1ccccc1[S-] [SP, sodium pyrithione]
ZIO of SP control solution (Staph. aureus; 0.01% SP): 12 mm
ZIO of SP control solution (Staph. aureus; 0.1% SP): 26 am

NC[C@H]1O[C@H](O[C@H]2[C@H](O)[C@@H](O[C@H]3O[C@H](CO)[C@@H](O)[C@H](N)[C@H]3O)[C@H](N)C[C@@H]2N)[C@H](N)C[C@@H]1O [tobramycin]
killing of microorganisms with current and antibiotic (microorganisms): total killing of microorganisms
